# Results: patent US20230393140A1, “BINDING ASSAYS INVOLVING A PLURALITY OF SYNTHETIC COMPOUNDS, TARGETS, AND COUNTER TARGETS” (SRI International, priority 2020, published 2023)
# Numbered stars: 1 amine (or outer) side, 2 acyl side, 3 side chain; on linkers, the order of the positions; unused ones are H or OH. Square brackets hold non-standard residues; d marks the D form. Peptide text beside a SMILES is read from it. * marks the point of attachment. 5FAM = O=C1OC2(c3ccc(O)cc3Oc3cc(O)ccc32)c2ccc(C(=O)*)cc21; NHCH2C6H4(4-CH2CONH2) = NC(=O)Cc1ccc(CN*)cc1; X1 = O=C(Cc1ccc(CN[*:1])cc1)[*:2]
# Assays:
# IL-6R = biological target: T1, IL-6R (Homo sapiens, UniProt P08887); experiment: MST binding affinity of resynthesized NNP hits to IL-6R; settings: IL-6R; ester versus amide amino acid-PAM bond polymers, library NNP2
# T1 construct: purchased Creative Biomart IL6R-584H
# T1 sequence (P08887 20-355 limits assumed): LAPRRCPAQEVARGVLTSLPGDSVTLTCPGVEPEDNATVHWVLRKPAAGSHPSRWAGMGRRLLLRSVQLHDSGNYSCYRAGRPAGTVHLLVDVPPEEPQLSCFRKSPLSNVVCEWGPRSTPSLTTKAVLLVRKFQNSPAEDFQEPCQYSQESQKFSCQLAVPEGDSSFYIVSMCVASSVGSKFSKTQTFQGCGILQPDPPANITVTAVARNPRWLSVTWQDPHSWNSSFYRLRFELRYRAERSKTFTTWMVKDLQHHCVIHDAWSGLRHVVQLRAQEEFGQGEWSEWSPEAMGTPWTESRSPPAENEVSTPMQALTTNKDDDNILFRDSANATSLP
# In short: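 Microscale thermophoresis at room temperature, triplicate, 15, 30 and 45 min incubations; targets labeled with RED-NHS 647 dye. Buffers (all 20 mM HEPES pH 7.4 unless noted): IL-6 150 mM KCl, 10 mM MgCl2, 0.1% Pluronic F-127; IL-6R 150 mM NaCl, 10 mM MgCl2, 0.05% Tween-20; TNFα 10 mM HEPES, 150 mM NaCl, 10 mM MgCl2, 0.05% Polysorbate-20; ASGPR adds 2 mM CaCl2, 0.05% Pluronic F-127, 1 mM DTT.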
# proteinase K = proteinase K (Parengyodontium album, UniProt P06873); experiment: Proteinase K stability assay; format: in vitro ADME; settings: 37 degrees C; aliquots at 0, 1.5 and 16 hours; LC-MS
# Chain of proteinase K (P06873 106-384, species assumed): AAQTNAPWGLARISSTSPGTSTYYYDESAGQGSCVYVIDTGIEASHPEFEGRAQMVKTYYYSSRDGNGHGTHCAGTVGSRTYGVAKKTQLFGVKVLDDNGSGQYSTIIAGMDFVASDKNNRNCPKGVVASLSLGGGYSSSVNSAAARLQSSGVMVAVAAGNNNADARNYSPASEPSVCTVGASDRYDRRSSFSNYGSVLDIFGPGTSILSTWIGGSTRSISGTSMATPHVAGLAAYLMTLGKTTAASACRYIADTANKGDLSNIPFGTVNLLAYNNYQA
# Protocol: For proteinase K stability, solutions of each tested compound (200 μM) in 10% DMSO and 20 mM Tris HCl at pH 8 were prepared. Proteinase K was added to a final concentration of […] and 100 μM of the tested compound in 5% DMSO and 10 mM Tris HCl at pH 8. The solutions were incubated at 37 degrees C. and aliquots after 0 hours, 1.5 hours and 16 hours were analyzed by LC-MS.
# [1] = format: in vitro ADME; settings: 17 h
# Protocol: For human plasma stability, lyophilized human plasma was reconstituted in sterile water for injection, aliquoted into 200 uL aliquots and stored frozen at −80 degrees C. prior to the stability studies. For the stability studies three aliquots per NNP were thawed at room temperature. An additional set of three aliquots for a positive control peptide (Angiotensin I) were also thawed. The incubations for the plasma stability were initiated by mixing 2 uL of a 2 mM stock solution of NNP IL6R-87-8 or positive control in DMSO with the 200 uL thawed plasma aliquot. After briefly vortex-mixing, 50 uL zero-time-point samples were removed, mixed with 50 uL of water and 400 uL of acetonitrile and frozen on dry ice until all time point samples had been collected. The samples were incubated at 37 degrees C. with samples removed and water/acetonitrile added at 1 hour, 3 hours, and 17 hours. Proteins were precipitated by centrifuging the samples at 17,000 G, 4 degrees C. for 1 hour. The supernatants were removed and concentrated in a centrifugal vacuum concentrator (GeneVac Genie II) at 45 degrees C. until the volume had been reduced to around 60 uL. […]
# K-Ras = biological target: T2, K-Ras (Homo sapiens, UniProt P01116, G12V); experiment: MST binding affinity of resynthesized NNP hits to K-Ras; settings: read-out: KD (nM) [95% conf. int]; MST; NNP1 library hit; target K-Ras; one-site binding model
# T2 construct: purchased Cytoskeleton Inc. CS-RS04
# In short: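 K-Ras G12V was GTP-loaded (EDTA exchange, 750 μM GTP, 2 h at 30° C, then MgCl2) and labeled with maleimide-647 dye. MST was run at room temperature in 20 mM HEPES pH 7.4, 150 mM NaCl, 10 mM MgCl2, 0.05% Tween-20, 1 mM DTT. Incubations lasted 15, 30 and 45 min; triplicate data fitted for affinity.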
# [2] = system: HepG2 cells (high ASGPR expressing); experiment: ASGPR uptake assay, flow cytometry, HepG2; format: cell-based, human; settings: fluorescein-labeled compounds, flow cytometry, 2 hours
# Protocol: (§1) The HEK293T (human embryonic kidney cells) and human hepatoma HepG2 cells were grown according to the protocols provided by the American Type Culture Collection (ATCC). When cells reached cell were seeded at ˜1.5×10^5 cells/well in 24-well culture plate for the uptake assay. After at least 16 hours of culture to allow cell attach and equilibrate, the compound treatment was set up for the uptake assay.
# (§2) The fluorescein-labeled NNPs or fluorescein-labeled N-acetylgalactosamine (GalNAc) recognizing ASGRPR were added to wells at indicated concentrations and incubated for 2 hours. Two plates were prepared for each treatment condition, one serving as 4 degrees C. no internalization control that was kept on ice during incubation, while the second plate was incubated at 37 degrees C. to allow for energy dependent internalization. Following the incubation period, all plates were placed on ice and washed three times with ice-cold PBS/3% BSA/2 mM EDTA and then lifted with trypsin. Cells were transferred to a 96-well round bottom plates in FACS buffer. Cells were then analyzed by flow cytometry using LSR-HJ with HTS sampler (BD Biosciences, San Jose, CA, USA). Data (mean fluorescence intensities) and further analyzed using Flowjo software (BD Biosciences, San Jose, CA, USA). The internalized fraction was expressed as the difference between the corresponding 4 degrees C. and 37 degrees C. MFIs as previously described.
# [3] = system: HEK293 cells (non-expressing); experiment: ASGPR uptake assay, flow cytometry, HEK293; format: cell-based, human; settings: fluorescein-labeled compounds
# Protocol: as §1
# as §2, with “MFIs as previously described.” left out
Compound,Kd (IL-6R) [nM],Stability in the presence of proteinase K (proteinase K),Stability in human plasma [1],Kd (K-Ras) [nM],Internalization (cell uptake) in HepG2 [2],Internalization (cell uptake) in HEK293 [3]
"CC(C)C[C@H](NC(=O)[C@@H](CCCNC(=N)N)NC(=O)[C@@H](C)NC(=O)Cc1ccc(CNC(=O)[C@H](CC(C)C)NC(=O)[C@@H](CCCNC(=N)N)NC(=O)[C@@H](CCC(=O)O)NC(=O)Cc2ccc(CNC(=O)[C@H](C)NC(=O)[C@@H](CCCCN)NC(=O)[C@@H](Cc3ccc(O)cc3)NC(=O)Cc3ccc(CNC(=O)[C@H](C)NC(=O)[C@@H](CCCNC(=N)N)NC(=O)[C@@H](Cc4ccccc4)NC(=O)Cc4ccc(CNC(=O)[C@H](Cc5ccccc5)NC(=O)[C@@H](CO)NC(=O)[C@@H](CCCNC(=N)N)NC(=O)Cc5ccc(CNC(=O)[C@@H](NC(=O)[C@@H](CO)NC(=O)[C@@H](Cc6ccc(O)cc6)NC(=O)Cc6ccc(CNC(=O)[C@H](Cc7ccccc7)NC(=O)[C@H](NC(=O)[C@@H](CC(N)=O)NC(=O)c7ccc8c(c7)C(=O)OC87c8ccc(O)cc8Oc8cc(O)ccc87)C(C)C)cc6)C(C)C)cc5)cc4)cc3)cc2)cc1)C(=O)NCc1ccc(CC(=O)N2CCC[C@@H]2C(=O)N[C@H](CCCNC(=N)N)C(=O)N[C@@H](C)C(=O)NCc2ccc(CC(=O)N[C@H](Cc3ccccc3)C(=O)N[C@H](CCCCN)C(=O)NCC(=O)NCc3ccc(CC(N)=O)cc3)cc2)cc1 [IL6R-87-8, Fluorescein-(D)Asn-(D)Val-(L)Phe-PAM-(D)Tyr-(D)Ser-(L)Val-PAM-(D)Arg-(D)Ser-(L)Phe-PAM-(D)Phe-(D)Arg-(L)Ala-PAM-(D)Tyr-(D)Lys-(L)Ala-PAM-(D)Glu-(D)Arg-(L)Leu-PAM-(D)Ala-(D)Arg- (L)Leu-PAM-(D)Pro-(D)Arg-(L)Ala-PAM-(D)Phe-(D)Lys-Gly-PAM] (5FAM-[dN][dV]F[X1][dY][dS]V[X1][dR][dS]F[X1][dF][dR]A[X1][dY][dK]A[X1][dE][dR]L[X1][dA][dR]L[X1][dP][dR]A[X1][dF][dK]G-{NHCH2C6H4(4-CH2CONH2)})",0.62,minimal degradation,stayed largely intact,–,–,–
CC(C)C[C@@H](NC(=O)[C@@H](CCC(=O)O)NC(=O)[C@@H](C)NC(=O)Cc1ccc(CNC(=O)[C@H](Cc2ccccc2)NC(=O)[C@@H](CCCNC(=N)N)NC(=O)[C@@H](Cc2ccc(O)cc2)NC(=O)[C@@H](CCCCN)NC(=O)[C@H]2CCCN2C(=O)Cc2ccc(CNC(=O)CNC(=O)[C@@H](CCCNC(=N)N)NC(=O)[C@@H](CCC(=O)O)NC(=O)[C@@H](CO)NC(=O)[C@H]3CCCN3C(=O)Cc3ccc(CNC(=O)[C@H](C)NC(=O)[C@@H](CCCNC(=N)N)NC(=O)[C@H]4CCCN4C(=O)[C@H](NC(=O)CNC(=O)Cc4ccc(CNC(=O)[C@H](Cc5ccccc5)NC(=O)[C@@H](CCC(=O)O)NC(=O)[C@@H](Cc5c[nH]cn5)NC(=O)[C@H]5CCCN5C(=O)[C@@H](CO)NC(=O)c5ccc6c(c5)C(=O)OC65c6ccc(O)cc6Oc6cc(O)ccc65)cc4)C(C)C)cc3)cc2)cc1)C(=O)N[C@H](CCCCN)C(=O)N[C@@H](C)C(=O)NCc1ccc(CC(=O)NCC(=O)N[C@H](Cc2c[nH]c3ccccc23)C(=O)N[C@H](Cc2c[nH]cn2)C(=O)N[C@H](CCCNC(=N)N)C(=O)N[C@@H](C)C(=O)NCc2ccc(CC(N)=O)cc2)cc1 [KRAS-1-14] (5FAM-[dS][dP][dH][dE]F[X1]G[dV][dP][dR]A[X1][dP][dS][dE][dR]G[X1][dP][dK][dY][dR]F[X1][dA][dE][dL][dK]A[X1]G[dW][dH][dR]A-{NHCH2C6H4(4-CH2CONH2)}),–,–,–,155,minimal uptake,minimal uptake
